# In patent US20160270397A1, “Herbicidal Composition Comprising ACC Inhibitors” (BASF SE, priority 2013, published 2016):
# Where two headings read alike, the source gives them in different places.
# What was measured:
# LEFFA = experiment: Greenhouse post-emergence treatment, herbicidal activity against LEFFA; type: in vivo, Leptochloa fusca subsp. Fascicularis
# Procedure: (§1) The culture containers used were plastic pots containing loamy sand with approximately 2-3.0% of organic matter. The seeds of the test plants were sown separately for each species.
# (§2) For the post-emergence treatment, the test plants were grown to a plant height of from 3 to 15 cm, depending on the plant habit, and only then treated with the active compounds which had been suspended or emulsified in water. To this end, the test plants were either sown directly, and grown in the same containers, or they were first grown separately as seedlings and transplanted into the test containers a few days prior to treatment.
# (§3) Depending on the species, the plants were kept at 10-25° C. and 20-35° C., respectively. The test period extended over 1 to 4 weeks. During this time, the plants were tended and their response to the individual treatments was evaluated.
# (§4) Evaluation was carried out using a scale from 0 to 100. 100 means no emergence of the plants, or complete destruction of at least the above-ground parts, and 0 means no damage or normal course of growth.
# IPOHE = experiment: Greenhouse post-emergence treatment, herbicidal activity against IPOHE; type: in vivo, Ipomoea hederacea
# Procedure: as §1, §2, §3, §4
# AMARE = experiment: Greenhouse post-emergence treatment, herbicidal activity against AMARE; type: in vivo, Amaranthus retroflexus L.
# Procedure: as §1, §2, §3, §4
# COMBE = experiment: Greenhouse post-emergence treatment, herbicidal activity against COMBE; type: in vivo, Commelina benghalensis
# Procedure: as §1, §2, §3, §4
# SETVI = experiment: Greenhouse post-emergence treatment, herbicidal activity against SETVI; type: in vivo, Setaria viridis L.
# Procedure: as §1, §2, §3, §4
# BRADE = experiment: Greenhouse post-emergence treatment, herbicidal activity against BRADE; type: in vivo, Brachiaria deflexa
# Procedure: as §1, §2, §3, §4
# SEBEX = experiment: Greenhouse post-emergence treatment, herbicidal activity against SEBEX; type: in vivo, Sesbania exaltata
# Procedure: as §1, §2, §3, §4
# PHACA = experiment: Greenhouse post-emergence treatment, herbicidal activity against PHACA; type: in vivo, Phalaris canariensis L.
# Procedure: as §1, §2, §3, §4
smiles,measurement,setting,value
"COc1c(Cl)ccc(Cl)c1C(=O)O [b7.2, dicamba]",pest or weed control at 250 g/ha,"LEFFA; Diplachne fusca, b7.2 250 g/ha a.i., read-out: herbicidal activity against LEFFA, found",25%
"COc1cnc(OC)n2nc(NS(=O)(=O)c3c(OCC(F)F)cccc3C(F)(F)F)nc12 [b2.12, penoxsulam]","herbicidal activity against IPOHE, found","IPOHE; Example 3, b2.12 8 g/ha a.i.",80%
same,"herbicidal activity against IPOHE, found","IPOHE; Example 4, b2.12 8 g/ha a.i.",80%
same,pest or weed control at 8 g/ha,"LEFFA; Diplachne fusca, b2.12 8 g/ha a.i., read-out: herbicidal activity against LEFFA, found",0%
"O=C(O)c1c(Cl)ccc2cc(Cl)cnc12 [b7.5, quinclorac]","herbicidal activity against AMARE, found",AMARE; b7.5 180 g/ha a.i.,50%
same,pest or weed control at 75 g/ha,"LEFFA; Diplachne fusca, Example 12, b7.5 75 g/ha a.i., read-out: herbicidal activity against LEFFA, found",65%
same,"herbicidal activity against LEFFA, found","LEFFA; Example 13, b7.5 75 g/ha a.i.",65%
same,"herbicidal activity against COMBE, found",COMBE; b7.5 7.5 g/ha a.i.,0%
same,"herbicidal activity against SETVI, found",SETVI; b7.5 90 g/ha a.i.,65%
"CCCC(=NOCC)C1=C(O)CC(C2CCCSC2)CC1=O (stereo not shown) [a1.19, cycloxydim]","herbicidal activity against AMARE, found","AMARE; Example 2, a1.19 10 g/ha a.i.",0%
same,"herbicidal activity against AMARE, found","AMARE; Example 6, a1.19 10 g/ha a.i.",0%
same,"herbicidal activity against IPOHE, found","IPOHE; Example 1, a1.19 10 g/ha a.i.",10%
same,"herbicidal activity against IPOHE, found","IPOHE; Example 6, a1.19 10 g/ha a.i.",10%
same,"herbicidal activity against IPOHE, found",IPOHE; a1.19 5 g/ha a.i.,0%
same,pest or weed control at 5 g/ha,"LEFFA; Diplachne fusca, a1.19 5 g/ha a.i., read-out: herbicidal activity against LEFFA, found",50%
same,"herbicidal activity against COMBE, found",COMBE; a1.19 10 g/ha a.i.,0%
same,"herbicidal activity against BRADE, found",BRADE; a1.19 10 g/ha a.i.,65%
"CC1(C)CON(Cc2ccccc2Cl)C1=O [b5.1, clomazone]","herbicidal activity against COMBE, found",COMBE; b5.1 75 g/ha a.i.,70%
same,"herbicidal activity against SETVI, found",SETVI; b5.1 75 g/ha a.i.,15%
"COc1cc(OC)nc(NC(=O)NS(=O)(=O)Cc2ccccc2C(=O)O)n1 [b2.2, bensulfuron]","herbicidal activity against AMARE, found",AMARE; b2.2 31 g/ha a.i.,80%
same,"herbicidal activity against BRADE, found",BRADE; b2.2 31 g/ha a.i.,0%
"C[C@@H](Oc1ccc(Oc2cnc3cc(Cl)ccc3n2)cc1)C(=O)O [a1.14, quizalofop-P]","herbicidal activity against AMARE, found",AMARE; a1.14 7.5 g/ha a.i.,20%
same,"herbicidal activity against IPOHE, found","IPOHE; Example 3, a1.14 12 g/ha a.i.",0%
same,"herbicidal activity against IPOHE, found","IPOHE; Example 5, a1.14 12 g/ha a.i.",5%
same,"herbicidal activity against LEFFA, found","LEFFA; Example 10, a1.14 10 g/ha a.i.",40%
same,"herbicidal activity against LEFFA, found","LEFFA; Example 11, a1.14 10 g/ha a.i.",40%
same,"herbicidal activity against LEFFA, found","LEFFA; Example 12, a1.14 10 g/ha a.i.",40%
same,"herbicidal activity against LEFFA, found","LEFFA; Example 13, a1.14 10 g/ha a.i.",40%
same,"herbicidal activity against LEFFA, found",LEFFA; a1.14 15 g/ha a.i.,65%
same,"herbicidal activity against SEBEX, found",SEBEX; a1.14 15 g/ha a.i.,0%
same,"herbicidal activity against COMBE, found",COMBE; a1.14 10 g/ha a.i.,0%
same,"herbicidal activity against COMBE, found",COMBE; a1.14 15 g/ha a.i.,0%
same,"herbicidal activity against SETVI, found",SETVI; a1.14 7.5 g/ha a.i.,75%
same,"herbicidal activity against SETVI, found",SETVI; a1.14 15 g/ha a.i.,85%
same,"herbicidal activity against PHACA, found",PHACA; a1.14 15 g/ha a.i.,65%
"CC(C)N1C(=O)c2ccccc2NS1(=O)=O [b3.1, bentazone]",pest or weed control at 250 g/ha,"LEFFA; Diplachne fusca, b3.1 250 g/ha a.i., read-out: herbicidal activity against LEFFA, found",10%
same,"herbicidal activity against COMBE, found",COMBE; b3.1 250 g/ha a.i.,95%
"COc1cc(OC)nc(Oc2cccc(Oc3nc(OC)cc(OC)n3)c2C(=O)O)n1 [b2.13, bispyribac]","herbicidal activity against AMARE, found",AMARE; b2.13 5 g/ha a.i.,90%
same,"herbicidal activity against IPOHE, found","IPOHE; Example 5, b2.13 5 g/ha a.i.",75%
same,"herbicidal activity against IPOHE, found","IPOHE; Example 6, b2.13 5 g/ha a.i.",75%
same,pest or weed control at 5 g/ha,"LEFFA; Diplachne fusca, Example 10, b2.13 5 g/ha a.i., read-out: herbicidal activity against LEFFA, found",65%
same,"herbicidal activity against LEFFA, found","LEFFA; Example 11, b2.13 5 g/ha a.i.",65%
"COc1cc(OC)nc(NC(=O)NS(=O)(=O)c2c(-c3nnn(C)n3)cnn2C)n1 [b2.1, azimsulfuron]","herbicidal activity against IPOHE, found",IPOHE; b2.1 10 g/ha a.i.,90%
same,"herbicidal activity against COMBE, found",COMBE; b2.1 5 g/ha a.i.,0%
"O=C(O)COc1nc(Cl)c(Cl)cc1Cl [b7.6, triclopyr]",pest or weed control at 50 g/ha,"LEFFA; Diplachne fusca, b7.6 50 g/ha a.i., read-out: herbicidal activity against LEFFA, found",20%
same,"herbicidal activity against SEBEX, found",SEBEX; b7.6 50 g/ha a.i.,50%
same,"herbicidal activity against PHACA, found",PHACA; b7.6 50 g/ha a.i.,0%
"CC(C)N(C)S(=O)(=O)NC(=O)c1cc(-n2c(=O)cc(C(F)(F)F)n(C)c2=O)c(F)cc1Cl [b4.3, saflufenacil]",pest or weed control at 2.5 g/ha,"LEFFA; Diplachne fusca, Example 11, b4.3 2.5 g/ha a.i., read-out: herbicidal activity against LEFFA, found",65%
same,"herbicidal activity against LEFFA, found","LEFFA; Example 12, b4.3 2.5 g/ha a.i.",65%
